Literature values as cited in publication PMC10265003 (Royal Society Open Science, 2023).

Assays:
[1] = system: MCF-7 breast cancer line; conditions: cytotoxic effect against MCF-7 cells, not tested in this paper; cited from earlier work
Source text: Dimeric peptides derived from peptide ^26[F]: (RRWQWRFKKLG)2-K-Ahx were synthesized and characterized. The analogues with the highest synthetic viability in terms of purity and yield were ^26[1-Nal] and ^26[hF].

[2] = system: MDA-MB-231 breast cancer cell line; conditions: cytotoxic effect; cited from earlier work
Source text: (§1) Solid-phase peptide synthesis has allowed chemical and structural modifications to be made to ACPs in order to enhance their activity and increase their resistance to proteolytic degradation.

[3] = system: MDA-MB-468 breast cancer cell line; conditions: cytotoxic effect; cited from earlier work
Source text: as §1

(^20RRWQWRMKKLG^30)2-K-Ahx [LfcinB (20–30)2]
IC50 [1]: ≥ 60 µM | IC50 [2]: 14 µM | IC50 [3]: 5 µM
